“And” between values parts separate entries of the source, which are not always exact repeats. Equal values may be shown once. “Also recorded” adds a separate entry of the source.
Experiments:
[1] = test system: C2C12 cells; experiment: Differentiation and muscle protein expression of C2C12 myoblasts exposed to deacetylase inhibitors (MHC immunofluorescence, Western blot, RT-PCR, FACS); type: cell-based, mouse
Protocol: (§1) Mouse muscle myoblast C2C12 cells (obtained from the American Type Culture Collection, ATCC CRL-1772) and CC42 cells (from Dr. Kenneth Walsh, Tufts University School of Medicine) were cultured in DMEM supplemented with 20% fetal bovine serum, 2 mM glutamine and 1× kanamycin (growth medium, GM). Cellular differentiation was induced with DMEM supplemented with 2% horse serum and 1× insulin, transferring, selenium (Life Technologies). Human skeletal myocytes (CC-2561) were purchased from Clonetics. Stable C2C12 cell lines with integrated reporters are described in Wu, Z., et al., Mol Cell Biol 20:3951-64 (2000). The MCK-luc, 4RE-luc, MEF2 reporter constructs have been described in Puri, P. L., et al., EMBO Journal 16:369-83 (1997a) and Sartorelli, V., et al., Molecular & Cellular Biology 17:1010-26 (1997). The E2F-luc plasmid is described in Helin, K., et al., Genes Dev 7:1850-61 (1993). The MLC-lacZ-nls plasmid is described in Wu, et al. (2000). Dr. Stuart Schreiber (Harvard University) provided the vector expressing Flag-HDAC1, which is described in Taunton, J., et al., Science 272: 408-11 (1996). Transient transfections were performed using FuGENE 6 transfection reagent (Roche Molecular Biochemicals). Following transfections, luciferase activity was determined using the Dual-Luciferase reporter assay system (Promega) on a microtiter luminescence detection system (MLX, Dynex).
For immunoblotting, cell extracts were obtained after incubating the cells in standard lysis buffer. Western blots were probed with the following antibodies: anti-MHC (MF-20), anti-myogenin (FD5), and anti-tubulin (E7), obtained from the Developmental Studies Hybridoma Bank, University of Iowa. Primary antibodies were visualized with the ECL cheminoluminescent kit (Amersham). Cells were fixed and stained with anti-MHC MF-20 antibodies. Nuclei were visualized by 4′,6′-[…]-2-phenylindole (DAPI). FITC-conjugated or Texas red-conjugated secondary antibodies were employed to reveal the primary antibodies.
C2C12 and CC42 cells were exposed to sodium butyrate 5 mM (Sigma), trichostatin A 50 nM (Upstate Biotechnologies), or valproic acid 10 mM (Sigma) for 24 hours in GM (GM regimen). TSA was removed and the cells cultured in DM for 48 hrs before being analyzed. When indicated (DM regimen), the cells were exposed to deacetylase inhibitors when switched from GM to DM and cultured in their presence for 48 hrs.
Another striking effect induced by DI is their ability to increase the number of nuclei present in MHC positive cells. While approximately 15% of the total nuclei are present in elongated, MHC-positive myotubes not exposed to DI, approximately 75-80% of the total nuclei are detected in hypernucleated MHC-positive myotubes when these have been previously exposed to DI (see FIG. 1D and Table 1). In Table 1, C2C12 cells were either exposed to sodium butyrate, TSA, VPA or left untreated for 24 hours in GM. The medium was replaced with DM without DI, and MHC expression was detected by immunofluorescent staining. Nuclei were visualized with DAPI. The values in parenthesis indicate the percentage of nuclei detected in MHC-positive cells. The values are derived from two independent trials.

[2] = test system: 4RE-luc, MEF2-luc, MCK-luc; experiment: Luciferase assay of transiently transfected myogenic reporters in skeletal myoblasts; type: cell-based, mouse
Protocol: as §1, with “Dr. Stuart Schreiber (Harvard University) provided the vector expressing Flag-HDAC1, which is described in Taunton, J., et al., Science 272: 408-11 (1996). Transient transfections were performed using FuGENE 6 transfection reagent (Roche Molecular Biochemicals).” left out
C2C12 and CC42 cells were exposed to sodium butyrate 5 mM (Sigma), trichostatin A 50 nM (Upstate Biotechnologies), or valproic acid 10 mM (Sigma) for 24 hours in GM (GM regimen). TSA was removed and the cells cultured in DM for 48 hrs before being analyzed. […]

[3] = test system: human skeletal myocytes (HSkM); experiment: MHC-positive myotube formation in primary human skeletal myocytes; type: cell-based; details: HSkM treated 24 hours in GM, then DM without TSA 48 hours
Protocol: Cellular extracts were obtained and analyzed by Western blotting for the presence of MHC, tubulin, and myogenin. […] Nuclei were stained with DAPI. […] Additionally, RT-PCR was performed on RNA obtained form cells treated with TSA (T) or without (-) TSA with specific primers for either MCK or GAPDH. […] Nuclei were stained with DAPI. […] Cells were grown in GM and treated with TSA for 24 hours, then switched to DM in the absence of TSA for additional 48 hours. Nuclei were stained with DAPI. Additionally, a Western blot analysis of MHC and tubulin expression in either untreated or TSA-treated (T) HSkM is shown. […] Nuclei were stained with DAPI. Mouse muscle myoblast C2C12 cells (obtained from the American Type Culture Collection, ATCC CRL-1772) and CC42 cells (from Dr. Kenneth Walsh, Tufts University School of Medicine) were cultured in DMEM supplemented with 20% fetal bovine serum, 2 mM glutamine and 1× kanamycin (growth medium, GM). Cellular differentiation was induced with DMEM supplemented with 2% horse serum and 1× insulin, transferring, selenium (Life Technologies). Human skeletal myocytes (CC-2561) were purchased from Clonetics. […] Following transfections, luciferase activity was determined using the Dual-Luciferase reporter assay system (Promega) on a microtiter luminescence detection system (MLX, Dynex). […]

[4] = C2C12, DI 24 hours in GM, then DM without DI, Tr. 1 and Tr. 2

HDAC1-mediated inhibition of 4RE-luc ([2]; HDAC1 expression vector co-transfected): could be reversed
SMILES: CC(/C=C/C(=O)NO)=C\[C@@H](C)C(=O)c1ccc(N(C)C)cc1 [TSA, trichostatin A]
Nuclei/MHC-Positive Cells (number of nuclei) [1, 4]: 200 and 210
percentage of nuclei detected in MHC-positive cells [1, 4]: 75% and 65%
endogenous MCK transcripts (RT-PCR) ([1]; undifferentiated myoblasts exposed in GM): induction of endogenous MCK transcripts
MHC expression and frequency of MHC-positive multinucleated cells ([1]; undifferentiated myoblasts exposed in GM, differentiated in the absence of DI, vs untreated cells): effects undistinguishable from those exerted by sodium butyrate
transcription of transiently transfected myogenic reporter constructs ([2]; treatment in GM or in DM): stimulates transcription of the reporter constructs only when the DI inhibitors are applied to the cells cultured in GM; also recorded: activation of a transfected MCK-luc reporter
formation of MHC-positive myotubes and MHC expression levels [3]: greatly enhanced the formation of MHC-positive myotubes and increased the MHC expression levels
